Values quoted from earlier work in US7135196B2, “Iron compositions” (Vitra Pharmaceuticals Limited, priority 2000, dated 2006).

O=C([O-])/C=C/C(=O)[O-].[Fe+2] [fumarate, ferrous fumarate]
solubility in water: poorly and slowly soluble
